Columns and labels:
[1] = biological target: T1, thioredoxin reductase 1 (TrxR) (Rattus norvegicus, UniProt O89049); assay: DTNB reduction assay
T1 sequence (O89049 1-499): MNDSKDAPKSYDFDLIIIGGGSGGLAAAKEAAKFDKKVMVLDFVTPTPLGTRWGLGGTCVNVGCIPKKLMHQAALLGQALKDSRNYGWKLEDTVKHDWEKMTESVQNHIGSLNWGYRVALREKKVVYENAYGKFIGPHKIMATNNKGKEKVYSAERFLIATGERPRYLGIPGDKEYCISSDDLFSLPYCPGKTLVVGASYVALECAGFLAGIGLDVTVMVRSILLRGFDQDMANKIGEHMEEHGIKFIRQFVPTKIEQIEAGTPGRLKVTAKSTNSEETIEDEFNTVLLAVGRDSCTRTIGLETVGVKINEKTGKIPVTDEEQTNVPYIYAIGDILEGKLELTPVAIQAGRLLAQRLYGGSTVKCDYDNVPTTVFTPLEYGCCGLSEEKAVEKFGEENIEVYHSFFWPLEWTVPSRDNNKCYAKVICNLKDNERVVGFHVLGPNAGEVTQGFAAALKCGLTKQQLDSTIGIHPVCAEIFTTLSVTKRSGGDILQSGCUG

[2] = biological target: T1, thioredoxin reductase 1 (TrxR); assay: biochemical

SMILES | IC50 [1] [µM] | IC50 [2] [µM]
CNC(=O)N(NS(C)(=O)=O)S(C)(=O)=O [101MDCE] | 5.37 ± 0.58 | 
O=NN(CCCl)C(=O)NCCCl [Carmustine, 1,3-bis(2-chloroethyl)-1-nitrosourea] |  | 7.63 ± 0.72
CNC(=O)N(N(CCCl)S(C)(=O)=O)S(C)(=O)=O [Laromustine, 1,2-bis(methylsulfonyl)-1-(2-chloroethyl)-2-[(methylamino)carbonyl]hydrazine] | 4.65 ± 0.37 | 

Source: PMC3469748 (Molecular and cellular biochemistry, 2012)
